SMILES strings stand for the structures. Bounds are passed on as bounds.

Chain of human plasma kallikrein (P03952 391-638): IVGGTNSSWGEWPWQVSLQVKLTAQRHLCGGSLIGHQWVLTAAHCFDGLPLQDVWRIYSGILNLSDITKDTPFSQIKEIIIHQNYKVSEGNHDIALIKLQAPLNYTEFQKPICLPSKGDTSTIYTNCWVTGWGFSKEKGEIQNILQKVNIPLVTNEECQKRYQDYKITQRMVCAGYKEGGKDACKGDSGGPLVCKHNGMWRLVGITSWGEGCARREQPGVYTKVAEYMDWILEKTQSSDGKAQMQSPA
Chain of human plasma kallikrein (P03952 20-390 partner): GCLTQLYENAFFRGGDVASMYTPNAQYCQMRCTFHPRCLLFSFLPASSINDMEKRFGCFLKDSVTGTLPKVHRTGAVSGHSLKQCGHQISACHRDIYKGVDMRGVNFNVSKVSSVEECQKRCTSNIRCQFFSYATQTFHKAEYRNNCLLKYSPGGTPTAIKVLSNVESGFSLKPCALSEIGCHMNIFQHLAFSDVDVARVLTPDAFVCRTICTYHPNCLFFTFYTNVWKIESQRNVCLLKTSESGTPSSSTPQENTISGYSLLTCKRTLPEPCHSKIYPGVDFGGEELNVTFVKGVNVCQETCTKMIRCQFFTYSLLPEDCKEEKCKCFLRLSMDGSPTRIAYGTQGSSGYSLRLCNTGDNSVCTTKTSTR

The assay concerns the target human plasma kallikrein (Homo sapiens (Human), UniProt P03952). In words: In vitro enzyme inhibition of human plasma kallikrein (PFR-AMC cleavage). The format is biochemical. As to conditions: Pro-Phe-Arg-AMC substrate, 37° C., read-out: hPK IC50. How it is done: The ability of the compounds disclosed herein to inhibit human plasma kallikrein activity was quantified according to the procedures below.
A 10 mM solution of the test compound was made in DMSO. […] A control tube containing only DMSO is included. 16 μL of each compound test solution was combined with 384 μL of assay buffer (50 mM Tris-HCl pH 7.5, 150 mM NaCl, 0.01% Triton X-100) to yield a “4× test compound buffer stock”.
These solutions are hereby referred to as 4× hPK and 2×PFR-AMC, respectively.
50 μL was removed from this mixture and placed into duplicate wells on a Microfluor 1Black U-bottom microtiter plate (Thermo Scientific). This plate was incubated for 5 minutes at 37° C. To each well, 50 μL of pre-warmed 2×PFR-AMC was added to start the enzymatic reaction. Cleavage of PFR-AMC was monitored in a Biotek Synergy H4 reader set at 37° C. Readings are taken every 43 seconds for 1 hour. […] The IC50 is calculated using the Gen5 (Biotek Instruments).
The ability of the compounds in Table 3 to inhibit human plasma kallikrein activity was determined.
As to `Cc1cc(N)nc(C)c1CNC(=O)c1cc(Cc2ccc3ncc(Cl)cc3c2)nc(-c2n[nH]c(=O)[nH]2)c1` [Example 196, N-((6-amino-2,4-dimethylpyridin-3-yl)methyl)-2-((3-chloroquinolin-6-yl)methyl)-6-(5-oxo-4,5-dihydro-1H-1,2,4-triazol-3-yl)isonicotinamide], the IC50 was below 100 nM. With `CC1=CC2C=NN(Cc3cc(C(=O)NCc4c(C)cc(N)nc4C)ccn3)C2C=C1` (centres unmarked) [Example 201, N-((6-amino-2,4-dimethylpyridin-3-yl)methyl)-2-((5-methyl-3a,7a-dihydro-1H-indazol-1-yl)methyl)isonicotinamide], the IC50 is below 100 nM. To `Cc1cc(N)nc(C)c1CNC(=O)c1ccnc(Cn2ncc3cc(Cl)cnc32)c1` [Example 202, N-((6-amino-2,4-dimethylpyridin-3-yl)methyl)-2-((5-chloro-1H-pyrazolo[3,4-b]pyridin-1-yl)methyl)isonicotinamide] belongs 100 to 1000 nM; to `Cc1cc(N)nc(C)c1CNC(=O)c1ccnc(Cn2cc3cc(Cl)cnc3n2)c1` [Example 203, N-((6-amino-2,4-dimethylpyridin-3-yl)methyl)-2-((5-chloro-2H-pyrazolo[3,4-b]pyridin-2-yl)methyl)isonicotinamide], 100 to 1000 nM; to `Cc1nc(N)ccc1CNC(=O)c1ccnc(Cc2cnc3ncc(Cl)cc3c2)c1` [Example 205, N-((6-amino-2-methylpyridin-3-yl)methyl)-2-((6-chloro-1,8-naphthyridin-3-yl)methyl)isonicotinamide], below 100 nM. Turning to `O=C(NCc1ccc2ncc(Cl)cn12)c1ccnc(Cc2ccc3ncc(Cl)cc3c2)c1` [Example 206, N-((3-chloropyrrolo[1,2-a]pyrimidin-6-yl)methyl)-2-((3-chloroquinolin-6-yl)methyl)isonicotinamide], the IC50 was above 10000 nM. With `Cc1cc(N)nc(C)c1CNC(=O)c1cc(C#N)nc(Cc2ccc3ncc(Cl)cc3c2)c1` [Example 207, N-((6-amino-2,4-dimethylpyridin-3-yl)methyl)-2-((3-chloroquinolin-6-yl)methyl)-6-cyanoisonicotinamide], the IC50 was below 100 nM.

For the compound `Cc1nc(N)ccc1CNC(=O)c1cc(Cc2cnc3ncc(Cl)cc3c2)ncc1C#N` [Example 216, N-((6-amino-2-methylpyridin-3-yl)methyl)-2-((6-chloro-1,8-naphthyridin-3-yl)methyl)-5-cyanoisonicotinamide], the IC50 fell in the range of 100 to 1000 nM.

In the case of `Cc1nc(N)ccc1CNC(=O)c1ccnc(Cc2cc(N)c3ncc(Cl)cc3c2)c1` [Example 218, N-((6-amino-2-methylpyridin-3-yl)methyl)-2-((8-amino-3-chloroquinolin-6-yl)methyl)isonicotinamide], the IC50 was below 100 nM. In the case of `Cc1nc(N)ccc1CNC(=O)c1ccnc(Cc2cnc3cc(F)c(Cl)cc3c2)c1` [Example 227, N-((6-amino-2-methylpyridin-3-yl)methyl)-2-((6-chloro-7-fluoroquinolin-3-yl)methyl)isonicotinamide], the IC50 was below 100 nM. Take `O=C(NCc1n[nH]c2ccc(Cl)cc12)c1ccnc(Cc2ccc3ncc(C(F)(F)F)cc3c2)c1` [Example 233, N-((5-chloro-1H-indazol-3-yl)methyl)-2-((3-(trifluoromethyl)quinolin-6-yl)methyl)isonicotinamide]: the IC50 was below 100 nM. Next, `Cc1nc(N)ccc1C(C)NC(=O)c1ccnc(Cc2ccc3ncc(Cl)cc3c2)c1` (centres unmarked) [Example 237, N-(1-(6-amino-2-methylpyridin-3-yl)ethyl)-2-((3-chloroquinolin-6-yl)methyl)isonicotinamide]: 1000 to 10000 nM; `COCCNc1ccc(CNC(=O)c2ccnc(Cc3ccc4ncc(Cl)cc4c3)c2)c(C)n1` [Example 242, 2-((3-chloroquinolin-6-yl)methyl)-N-((6-((2-methoxyethyl)amino)-2-methylpyridin-3-yl)methyl)isonicotinamide]: 100 to 1000 nM; `Cc1cc(N)nc(C)c1CNC(=O)c1ccnc(Cc2ccc3ncc(C(N)=O)cc3c2)c1` [Example 250, 6-((4-(((6-amino-2,4-dimethylpyridin-3-yl)methyl)carbamoyl)pyridin-2-yl)methyl)quinoline-3-carboxamide]: 100 to 1000 nM. `Cc1nc(N)ccc1CNC(=O)c1ccnc(Cc2ccc3ncc(C(N)=O)cc3c2)c1` [Example 251, 6-((4-(((6-amino-2-methylpyridin-3-yl)methyl)carbamoyl)pyridin-2-yl)methyl)quinoline-3-carboxamide]: the IC50 was in the range of 1000 to 10000 nM. Take `Cc1nc(NCCO)ccc1CNC(=O)c1ccnc(Cc2ccc3ncc(Cl)cc3c2)c1` [Example 252, 2-((3-chloroquinolin-6-yl)methyl)-N-((6-((2-hydroxyethyl)amino)-2-methylpyridin-3-yl)methyl)isonicotinamide]: the IC50 was above 10000 nM. To `O=C(NCc1cnc2ncc(Cl)cn12)c1ccnc(Cc2ccc3ncc(Cl)cc3c2)c1` [Example 256, N-((6-chloroimidazo[1,2-a]pyrimidin-3-yl)methyl)-2-((3-chloroquinolin-6-yl)methyl)isonicotinamide] belongs above 10000 nM; to `Cc1cc(N)nc(C)c1CNC(=O)c1ccnc(Cc2ccc3ncc(CO)cc3c2)c1` [Example 257, N-((6-amino-2,4-dimethylpyridin-3-yl)methyl)-2-((3-(hydroxymethyl)quinolin-6-yl)methyl)isonicotinamide], below 100 nM.

For the compound `Cc1nc(N)ccc1CNC(=O)c1ccnc(Cc2ccc3ncc(CO)cc3c2)c1` [Example 258, N-((6-amino-2-methylpyridin-3-yl)methyl)-2-((3-(hydroxymethyl)quinolin-6-yl)methyl)isonicotinamide], the IC50 was in the range of 100 to 1000 nM. Next, `O=C(NCc1cc2cc[nH]c2cc1F)c1ccnc(Cc2ccc3ncc(Cl)cc3c2)c1` [Example 259, 2-((3-chloroquinolin-6-yl)methyl)-N-((6-fluoro-1H-indol-5-yl)methyl)isonicotinamide]: 100 to 1000 nM. Regarding `Cc1n[nH]c2ccc(CNC(=O)c3ccnc(Cc4ccc5ncc(Cl)cc5c4)c3)cc12` [Example 261, 2-((3-chloroquinolin-6-yl)methyl)-N-((3-methyl-1H-indazol-5-yl)methyl)isonicotinamide], the IC50 was 1000 to 10000 nM.

Take `Cc1cc(N)nc(C)c1CNC(=O)c1ccnc(Cc2ccc3ncc(C(C)O)cc3c2)c1` (centres unmarked) [Example 262, N-((6-amino-2,4-dimethylpyridin-3-yl)methyl)-2-((3-(1-hydroxyethyl)quinolin-6-yl)methyl)isonicotinamide]: the IC50 is below 100 nM.

Take `Cc1nc(N)ccc1CNC(=O)c1ccnc(Cc2ccc3ncc(C(C)O)cc3c2)c1` (centres unmarked) [Example 263, N-((6-amino-2-methylpyridin-3-yl)methyl)-2-((3-(1-hydroxyethyl)quinolin-6-yl)methyl)isonicotinamide]: the IC50 fell in the range of 100 to 1000 nM. To `COc1cnc2ccc(Cc3cc(C(=O)NCc4ccc(N)nc4C)ccn3)cc2c1` [Example 265, N-(6-amino-2-methyl-pyridin-3-ylmethyl)-2-(3-methoxy-quinolin-6-ylmethyl)-isonicotinamide] belongs below 100 nM. To `Cc1n[nH]c2ncc(CNC(=O)c3ccnc(Cc4ccc5ncc(Cl)cc5c4)c3)cc12` [Example 266, 2-((3-chloroquinolin-6-yl)methyl)-N-((3-methyl-1H-pyrazolo[3,4-b]pyridin-5-yl)methyl)isonicotinamide] belongs 1000 to 10000 nM; to `O=C(NCc1ccc2[nH]nc(C(F)(F)F)c2c1)c1ccnc(Cc2ccc3ncc(Cl)cc3c2)c1` [Example 267, 2-((3-chloroquinolin-6-yl)methyl)-N-((3-(trifluoromethyl)-1H-indazol-5-yl)methyl)isonicotinamide], 1000 to 10000 nM; to `O=C(NCc1c[nH]c2ccc(Cl)cc12)c1ccnc(Cc2ccc3ncc(Cl)cc3c2)c1` [Example 268, N-((5-chloro-1H-indol-3-yl)methyl)-2-((3-chloroquinolin-6-yl)methyl)isonicotinamide], 100 to 1000 nM. As for `O=C(NCc1c[nH]c2ncc(Cl)cc12)c1ccnc(Cc2ccc3ncc(Cl)cc3c2)c1` [Example 269, N-((5-chloro-1H-pyrrolo[2,3-b]pyridin-3-yl)methyl)-2-((3-chloroquinolin-6-yl)methyl)isonicotinamide], the IC50 fell in the range of 1000 to 10000 nM. For the compound `Cc1[nH]c2ccc(Cl)cc2c1CNC(=O)c1ccnc(Cc2ccc3ncc(Cl)cc3c2)c1` [Example 270, N-((5-chloro-2-methyl-1H-indol-3-yl)methyl)-2-((3-chloroquinolin-6-yl)methyl)isonicotinamide], the IC50 was in the range of 100 to 1000 nM.

As to `O=C(NCc1cnc2[nH]nc(C(F)(F)F)c2c1)c1ccnc(Cc2ccc3ncc(Cl)cc3c2)c1` [Example 271, 2-((3-chloroquinolin-6-yl)methyl)-N-((3-(trifluoromethyl)-1H-pyrazolo[3,4-b]pyridin-5-yl)methyl)isonicotinamide], the IC50 was in the range of 100 to 1000 nM. Turning to `Cc1nc(N)ccc1CNC(=O)c1ccnc(Cc2cc(-c3nnn[nH]3)c3ncc(Cl)cc3c2)c1` [Example 273, N-((6-amino-2-methylpyridin-3-yl)methyl)-2-((3-chloro-8-(1H-tetrazol-5-yl)quinolin-6-yl)methyl)isonicotinamide], the IC50 was 100 to 1000 nM. As for `Cc1cc(N)nc(C)c1CNC(=O)c1ccnc(C(=O)c2ccc3ncc(Cl)cc3c2)c1` [Example 274, N-((6-amino-2,4-dimethylpyridin-3-yl)methyl)-2-(3-chloroquinoline-6-carbonyl)isonicotinamide], the IC50 lay within 100 to 1000 nM.

What is called IC50 is the concentration at which inhibition is half-maximal.

Values taken from patent publication US10023557B2 (LifeSci Pharmaceuticals, Inc., priority 2015, dated 2018).
